# Measured values as given in PubChem BioAssay AID1963849 (Molecular Pharmacology Branch, DTP, NCI, 2024).
# “And” between values parts separate entries of the source, which are not always exact repeats. Equal values may be shown once.
# System: 299254-011-R-J1-PDC complex spheroid viability
# Assay: Anticancer human tumor 299254-011-R-J1-PDC patient-derived melanoma cell line growth inhibition [POLQ]
# Details: for viability, T/C: stronger effect = lower value
# Procedure: Multicellular complex tumor spheroid response to Polymerase (POL) inhibitors (novobiocin, ART-558, RP6685) in combination with a variety of drugs and investigational agents in selected tumor cell lines
# The POL inhibitors (novobiocin, ART-558, and RP6685) were evaluated both individually and in combination with standard of care and investigational anticancer small molecules within a complex spheroid model of solid tumors. . Complex spheroids include a stromal component modeled by human endothelial cells (HUVEC) and fibroblasts modeled by human mesenchymal stem cells (MSCs). The concentration ranges selected for each drug and investigational agent were based upon clinically achievable concentrations if the clinical Cmax of the agent was known.
# Compounds. The drugs and investigational agents: novobiocin (NSC847541), ART-558 (NSC835418), RP-6685 (NSC848927), peposertib (NSC802822), ceralasertib (NSC780249), elimusertib (NSC800525), camonsertib (NSC841442), AZD-1390 (NSC803789), olaparib (NSC753686), talazoparib (NSC767125), rucaparib (NSC756644), sotorasib (NSC818433), MRTX-1133 (NSC836407), SN-38 (NSC673596), topotecan (NSC609699), epotoside (NSC141540), doxorubicin (NSC123127), gemcitabine (NSC613327), 5-fluorouracil (NSC19893), paclitaxel (NSC125973), vemurafenib (NSC761431), MSA-2 (NSC828583), SN-011 (NSC837082), adavosertib (NSC754352), prexasertib (NSC758257), carboplatin (NSC241240) and oxaliplatin (NSC266046), were obtained from the National Cancer Institute (NCI) Developmental Therapeutics Program Chemical Repository (21). The FDA-approved anticancer drug set is available from the Developmental Therapeutics Program at https://dtp.cancer.gov/organization/dscb/obtaining/. […] The stock solutions were prepared in dimethyl sulfoxide (DMSO, Sigma-Aldrich, St. Louis, MO, cat. D2650), except for the platinum compounds which were prepared in saline (Quality Biological, Gaithersburg, MD, cat. 114-055-101), at 800-fold the tested concentration and stored at -70 degrees C prior to their use. All drugs and investigational agents were tested over a range starting from a high concentration at or near the clinical Cmax and decreasing in half-log increments. If the clinical Cmax for an agent had not been determined, the highest concentration tested was 10 microM, except for SN-38, which was tested at a high concentration of 1 microM.
# Cell Culture. All cells were maintained in an incubator at 37 degrees C and 5% CO2 with 95% humidity. The PDC lines were cultured according to standard operating procedures established by the NCI PDMR (https://pdmr.cancer.gov). Table 3 of the manuscript, lists the cell lines along with the number of the three cell types plated to form the mct-spheroids and media for tumor cell growth. After thawing, all PDC lines, except 997537-175-T-J1-PDC and 415267-285-R-J2-PDC, were cultured in Matrigel-coated flasks prepared with a working solution of 1X Ham's F-12 nutrient mix, without supplementation (Thermo Fisher Scientific, cat. 11765054), 100 U/mL penicillin-streptomycin (Thermo Fisher Scientific, cat. 15140122), and 2.5% Matrigel (Corning Inc., Corning, NY, cat. 354248) for the first three passages. The two PDC lines 997537-175-T-J1-PDC and 415267-285-R-J2-PDC were cultured on uncoated flasks. The 857933-349-R-J2-PDC line was cultured in 6C/Colon 1B media containing advanced DMEM/F-12 (Thermo Fisher Scientific, cat. 12634028), 10 mM HEPES (Thermo Fisher Scientific, cat. 15630080), 1X GlutaMAX supplement (Thermo Fisher Scientific, cat. 35050061), 0.1 mg/mL primocin (InvivoGen, San Diego, CA, cat. ant-pm-2), 10% defined fetal bovine serum, heat inactivated (HyClone Laboratories Inc., Logan, UT, cat. SH30070.03HI), 50% L-WRN conditioned media (ATCC, cat. CRL-3276), 1.25 mM N-Acetyl-L-cysteine (Sigma-Aldrich, cat. A9165), 10 mM nicotinamide (Sigma-Aldrich, cat. N0636), 1X B-27 supplement (Thermo Fisher Scientific, cat. 17504044), 1X N-2 supplement (Thermo Fisher Scientific, cat. […]
# 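Also: spheroids exposed to drugs for one week before measurement.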
# 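For viability, T/C in this document: percent viability relative to DMSO vehicle control taken as 100%.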
smiles,measurement,setting,value
Cn1ncnc1[C@H]1c2n[nH]c(=O)c3cc(F)cc(c23)N[C@@H]1c1ccc(F)cc1 + Cc1cccc(N(C)C(=O)C2C(O)CCN2c2nc(C)cc(C(F)(F)F)c2C#N)c1,IC50,"curve of first compound, second compound 0.0316 µM",> 100 nM
same,IC50,"curve of first compound, second compound 0.1 µM",> 100 nM
same,IC50,"curve of first compound, second compound 0.316 µM",> 100 nM
same,IC50,"curve of first compound, second compound 1 µM",> 100 nM
same,IC50,"curve of first compound, second compound 3.16 µM",> 100 nM
same,IC50,"curve of first compound, second compound 10 µM",> 100 nM
same,"viability, T/C","second compound 0.0316 µM, first compound 0.000316 µM",102%
same,"viability, T/C","second compound 0.0316 µM, first compound 0.001 µM",91.6%
same,"viability, T/C","second compound 0.0316 µM, first compound 0.00316 µM",95.9%
same,"viability, T/C","second compound 0.0316 µM, first compound 0.01 µM",110%
same,"viability, T/C","second compound 0.0316 µM, first compound 0.0316 µM",112%
same,"viability, T/C","second compound 0.0316 µM, first compound 0.1 µM",113%
same,"viability, T/C","second compound 0.1 µM, first compound 0.000316 µM",119%
same,"viability, T/C","second compound 0.1 µM, first compound 0.001 µM",108%
same,"viability, T/C","second compound 0.1 µM, first compound 0.00316 µM",117%
same,"viability, T/C","second compound 0.1 µM, first compound 0.01 µM",106%
same,"viability, T/C","second compound 0.1 µM, first compound 0.0316 µM",114%
same,"viability, T/C","second compound 0.1 µM, first compound 0.1 µM",119%
same,"viability, T/C","second compound 0.316 µM, first compound 0.000316 µM",108%
same,"viability, T/C","second compound 0.316 µM, first compound 0.001 µM",96.4%
same,"viability, T/C","second compound 0.316 µM, first compound 0.00316 µM",102%
same,"viability, T/C","second compound 0.316 µM, first compound 0.01 µM",114%
same,"viability, T/C","second compound 0.316 µM, first compound 0.0316 µM",106%
same,"viability, T/C","second compound 0.316 µM, first compound 0.1 µM",102%
same,"viability, T/C","second compound 1 µM, first compound 0.000316 µM",111%
same,"viability, T/C","second compound 1 µM, first compound 0.001 µM",116%
same,"viability, T/C","second compound 1 µM, first compound 0.00316 µM",103%
same,"viability, T/C","second compound 1 µM, first compound 0.01 µM",114%
same,"viability, T/C","second compound 1 µM, first compound 0.0316 µM",102%
same,"viability, T/C","second compound 1 µM, first compound 0.1 µM",94.1%
same,"viability, T/C","second compound 3.16 µM, first compound 0.000316 µM",90.1%
same,"viability, T/C","second compound 3.16 µM, first compound 0.001 µM",109%
same,"viability, T/C","second compound 3.16 µM, first compound 0.00316 µM",103%
same,"viability, T/C","second compound 3.16 µM, first compound 0.01 µM",111%
same,"viability, T/C","second compound 3.16 µM, first compound 0.0316 µM",122%
same,"viability, T/C","second compound 3.16 µM, first compound 0.1 µM",114%
same,"viability, T/C","second compound 10 µM, first compound 0.000316 µM",93.6%
same,"viability, T/C","second compound 10 µM, first compound 0.001 µM",107%
same,"viability, T/C","second compound 10 µM, first compound 0.00316 µM",113%
same,"viability, T/C","second compound 10 µM, first compound 0.01 µM",94%
same,"viability, T/C","second compound 10 µM, first compound 0.0316 µM",98%
same,"viability, T/C","second compound 10 µM, first compound 0.1 µM",99%
CCc1c2c(nc3ccc(O)cc13)-c1cc3c(c(=O)n1C2)COC(=O)[C@]3(O)CC,"viability, T/C",compound 0.00316 µM,94.6% and 92.7% and 99.2%
same,"viability, T/C",compound 0.01 µM,89.3% and 93.2% and 77.9%
same,"viability, T/C",compound 0.0316 µM,75.9% and 72.8% and 82%
same,"viability, T/C",compound 0.1 µM,67.9% and 81.2% and 60.7%
same,"viability, T/C",compound 0.316 µM,69.4% and 75.8% and 59.4%
same,"viability, T/C",compound 1 µM,51.7% and 59.2% and 59.4%
same,IC50,curve of compound,> 1000 nM
